Laboratory results published in patent US8895600B2, “Non peptidic 14-3-3 inhibitors and the use thereof” (Università degli Studi di Siena, priority 2010, dated 2014).

Tests used:
[1] = test system: Ba/F3 cells expressing the wild type Bcr-Abl; experiment: Clonogenic assay (0.9% methylcellulose), Ba/F3 wt Bcr-Abl; format: cell-based, murine; conditions: Ba/F3 p210Bcr-Abl WT, dose reducing cell clonogenic potential to 50%
Description: (§1) Parental pro-B murine cell line Ba/F3 and clones expressing the wt and T315I and E255K-mutated Bcr-Abl constructs were kindly donated by Michael W Deininger (Department of Hematology and Clinical Oncology, Health and Science University, Cancer Institute, Portland, Oreg., USA). […] Indirect immuno-magnetic labeling (mini-MACS from Milteny Biotech, Bergish Gladback, Germany) was used to isolate CD34+ hematopoietic progenitors from bone marrow samples of 3 CML patients in blast crisis who developed IM resistance. Patient informed consent to use bone marrow samples for our experimental studies was approved by the Ethical Committee of S. Orsola-Malpighi Hospital (Bologna, Italy). The content of CD34+ cells in each sample was measured by cytofluorimetric analysis of CD34 expression with a FacScan (Becton Dickinson, Franklin Land, PI, USA).
(§2) Briefly, the authors assessed the reduction of colony (aggregates containing >50 cells generated in 0.9% methylcellulose supplemented with 30% FCS) number in Bcr-Abl-expressing Ba/F3 cell lines and CD34+ in presence of BV02 increasing doses after 7 or 14 day incubation, respectively, at 37° C. in fully humidified atmosphere and 5% CO2. Linear and non linear regression analyses were used to calculate BV02 LD50 in Bcr-Ablexpressing Ba/F3 cell lines and CD34+ progenitors from CML patients, respectively.
(§3) PI uptake was measured by mean of a FACScan flow cytometer set at >580 nm and a dedicated software (both from Beckton Dickinson, San Jose, Calif., USA). Caspase-8 activity was detected with a commercial kit (Carboxyfluorescein FLICA Apoptosis Detection kits from Immunochemistry Technologies LLC, Bloomington, Minn., USA) according to manufacturer instructions. […] Apoptosis was quantified as the level of fluorescence emitted from FLICA probes bound to caspases. […] Caspase-8 activity was quantified by mean of a dedicated software (DIVA from Becton Dickinson). Cell response to BV-01 and BV-02 was evaluated in clonogenic assays (0.9% methylcellulose additioned with drug scalar doses) (see Methods above for methodological details).

[2] = test system: Ba/F3 cells expressing the T315I Bcr-Abl mutation; experiment: Clonogenic assay (0.9% methylcellulose), Ba/F3 T315I Bcr-Abl; format: cell-based, murine; conditions: Ba/F3 p210Bcr-Abl T315I, dose reducing cell clonogenic potential to 50%
Description: as §1, §2, §3

14-3-3σ = molecular target: T1, 14-3-3σ (Homo sapiens, UniProt P31947); experiment: Transferred NOE (tr-NOEs) NMR binding experiment; conditions: 298K; protein concentration 10 fold less than ligand
T1 sequence (P31947 1-248): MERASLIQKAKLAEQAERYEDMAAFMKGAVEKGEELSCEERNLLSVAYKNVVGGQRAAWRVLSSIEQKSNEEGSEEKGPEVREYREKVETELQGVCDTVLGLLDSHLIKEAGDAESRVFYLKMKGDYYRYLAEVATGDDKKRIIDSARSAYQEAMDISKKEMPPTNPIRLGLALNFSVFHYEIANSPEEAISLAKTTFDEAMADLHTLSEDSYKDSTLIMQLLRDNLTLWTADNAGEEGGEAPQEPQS
Description: The binding ability of BV-01 was analyzed by transferred Nuclear Overhauser Enhancement experiments (tr-NOEs). Experiments were recorded (at 298K on Bruker Avance 600) both on the free ligand and in the presence of protein in concentration 10 fold less than ligand. In the tr-NOEs experiments, only ligands in fast exchange between the bound and the free form are observed. Since the NOE effects are directly related to the size of the molecule in solution, by binding to the protein, the ligands NOE change in intensity and appearance allowing an easy detection of the binding.

[3] = test system: Ba/F3 Parental cells (lacking Bcr-Abl); experiment: Clonogenic assay (0.9% methylcellulose), parental Ba/F3; format: cell-based, murine; conditions: dose reducing cell clonogenic potential to 50%
Description: (§4) Parental pro-B murine cell line Ba/F3 and clones expressing the wt and T315I and E255K-mutated Bcr-Abl constructs were kindly donated by Michael W Deininger (Department of Hematology and Clinical Oncology, Health and Science University, Cancer Institute, Portland, Oreg., USA). They were maintained in RPMI medium (Gibco, Paisley, 9 JPET#172536 UK) supplemented with 10% FCS (Gibco), 1% I-glutamine (Sigma, St. Louis, Miss., USA) and 10% WEHI 3 conditioned medium as source of IL-3 when required. […] The content of CD34+ cells in each sample was measured by cytofluorimetric analysis of CD34 expression with a FacScan (Becton Dickinson, Franklin Land, PI, USA). […] BV02 cytotoxicy was assayed in clonogenic assays, the best in vitro technique to quantify drug impact on cell reproductive integrity.
as §2, with “Linear and non linear regression analyses were used to calculate BV02 LD50 in Bcr-Ablexpressing Ba/F3 cell lines and CD34+ progenitors from CML patients, respectively.” left out
(§5) Cell cycle distribution was performed on 1×10^6 cells fixed overnight in 70% ethanol and treated with 1 μg/μL 11 JPET#172536 PI and RNAse (Sigma) at 37° C. for 30′. […] Apoptosis was quantified as the level of fluorescence emitted from FLICA probes bound to caspases. […]

[4] = test system: Ba/F3 cells expressing the Bcr-Abl mutation coding for E255K; experiment: Clonogenic assay (0.9% methylcellulose), Ba/F3 E255K Bcr-Abl; format: cell-based, murine; conditions: Ba/F3 p210Bcr-Abl E255K; dose reducing cell clonogenic potential to 50%
Description: as §4
as §2, with “Linear and non linear regression analyses were used to calculate BV02 LD50 in Bcr-Ablexpressing Ba/F3 cell lines and CD34+ progenitors from CML patients, respectively.” left out
as §5

[5] = test system: c-Abl / 14-3-3σ signalling in Ba/F3 cells expressing T315I Bcr-Abl mutation; experiment: Western blot and IP/immunoblotting of sub-cellular fractions, T315I Bcr-Abl Ba/F3; format: cell-based, murine
Description: as §2, with “respectively. […]” for “respectively.”
Proteins or IP products obtained through overnight incubation with primary antibodies in Buffer D (250 mM NaCl, 15 mM MgCl2 40 mM Hepes, 60 mM glycerophosphate supplemented with protease inhibitors) were resolved in SDSPAGE. […] Signals were visualized by the enhanced chemo-luminescence detection system ECL from Pierce (Rockford, Ill., USA). Signal intensities in single blots obtained from three individual experiments were quantified by mean of a dedicated software (Launch VisionWorks LS, Upland, Calif., USA).
(§6) The statistical significance of differences in signal intensities relative to cell treatments was assessed by mean of paired Student's t-test; p<0.05 was kept as limit for statistical significance.

[6] = test system: CD34+ cells from bone marrow of CML patients in blast crisis with T315I mutation; experiment: Clonogenic assay on CD34+ progenitors of IM-resistant CML patients; format: cell-based, human; conditions: three CML patients in blast crisis
Description: as §4, with “required. Indirect immuno-magnetic labeling (mini-MACS from Milteny Biotech, Bergish Gladback, Germany) was used to isolate CD34+ hematopoietic progenitors from bone marrow samples of 3 CML patients in blast crisis who developed IM resistance.” for “required.”
as §2, with “Linear and non linear regression analyses were used to calculate BV02 LD50 in Bcr-Ablexpressing Ba/F3 cell lines and CD34+ progenitors from CML patients, respectively.” left out

[7] = test system: c-Abl / 14-3-3σ signalling in wt Bcr-Abl-expressing Ba/F3 cells; experiment: Western blot and IP/immunoblotting of sub-cellular fractions, wt Bcr-Abl Ba/F3; format: cell-based, murine; conditions: 24 h, 1 μM IM or 5 μM BV02; for interaction between c-Abl and 14-3-3σ: IP/immunoblotting
Description: Nuclear lysates were obtained from naked nuclei recovered from 2×10^7 cells kept in buffer B (10 mM NaCl, 5 mM MgCl2, 10 mM phosphate buffer and 0.1% Tergitol-type detergent NP40 [all from Sigma] supplemente with protease inhibitors) by means of 3 sonication rounds (10′ pulses using a Hight Intensity Ultrasonic Processor/Sonicator from Cole Parmer [Vernon Hills, Ill., USA] equipped with 2 mm tips). Mitochondrial membranes were separated from whole cell lysates by 30′ centrifugation at 14,000 g in 2 mL buffer C (20 mM Hepes pH 7.5, 1.5 mM MgCl2, 10 mM KCl, 1 mM EDTA, 1 mM EGTA, 1 mM dithiothreitol, 0.1% PMS and protease inhibitors in 250 mM sucrose) at 4° C.
Proteins or IP products obtained through overnight incubation with primary antibodies in Buffer D (250 mM NaCl, 15 mM MgCl2 40 mM Hepes, 60 mM glycerophosphate supplemented with protease inhibitors) were resolved in SDSPAGE. Gels were then transferred onto nitrocellulose membranes (Schleicher & Schuel, Dassel, Germany), labelled with primary and secondary antibodies in TBS with 5% BSA (Sigma) and 0.1% Tween20 (Sigma). The antibodies were purchased from Upstate Biotechnology (Lake Placid, N.Y., USA), Cell Signalling (Danvers, Mass., USA) and Santa Cruz Biotechnology (Santa Cruz, Calif., USA). Signals were visualized by the enhanced chemo-luminescence detection system ECL from Pierce (Rockford, Ill., USA). Signal intensities in single blots obtained from three individual experiments were quantified by mean of a dedicated software (Launch VisionWorks LS, Upland, Calif., USA).
as §6

[8] = test system: Ba/F3 cells expressing T315I mutation; experiment: Apoptosis induction, cytofluorimetric Annexin V and PI uptake, T315I; format: cell-based, murine; conditions: IM 1 μM for 24 h, BV02 5 μM for 24 h
Description: as §2, with “respectively. Apoptosis induction and involved signals were assayed in Bcr-Abl-expressing Ba/F3 cell lines after 24 h exposure to 1 μM IM and 5 μM BV02 by means of cytofluorimetric analysis of Annexin V (Hoffmann-La Roche, Basel, SW) and PI (Sigma) uptake, Western blot and IP/immunoblotting analyses, according to published methods (Mancini, 2009).” for “respectively.”

[9] = test system: Ba/F3 cells expressing the wild type Bcr-Abl protein; experiment: Apoptosis induction, cytofluorimetric Annexin V and PI uptake, wt Bcr-Abl; format: cell-based, murine; conditions: IM 1 μM for 24 h, BV02 5 μM for 24 h

CCCCCCOC(=O)c1ccc(Nc2c([N+](=O)[O-])cc(C(=O)O)cc2[N+](=O)[O-])cc1 [BV-01]
LD50 [1]: 1.41 µM | LD50 [2]: 1.70 µM | tr-NOEs pattern (binding to 14-3-3σ) (14-3-3σ): weak interaction | LD50 [3]: 1.89 µM | LD50 [4]: 1.28 µM

Cc1c(NC(=O)c2cc(C(=O)O)ccc2C(=O)O)c(=O)n(-c2ccccc2)n1C [BV-02]
c-Abl release from 14-3-3σ, relocation and apoptotic events ([5]; T315I Ba/F3): elecited all above mentioned events | Tyr245 phosphorylation of normal and Bcr-rearranged c-Abl ([5]; T315I Ba/F3 after exposure to BV02): slight increase | LD50 [1]: 1.04 µM | LD50 ([1]; listed as BV02): 1.04 ± 0.09 µM | LD50 [2]: 1.47 µM | LD50 ([2]; listed as BV02): 1.47 ± 0.12 µM | cytotoxicity in CD34+ cells (survival curves) [6]: confirmed | interaction between c-Abl and 14-3-3σ ([7]; cytoplasm): mediates c-Abl release from 14-3-3σ | interaction between c-Abl and 14-3-3σ ([7]; cytoplasm, listed as BV02): reduction | c-Abl (145 kDa) level ([7]; cytoplasm): reduction | c-Abl interaction with caspase 9 ([7]; cytoplasm): increase | c-Abl phosphorylation at Tyr245 ([7]; cytoplasm): not affected | caspase 9 (p35) and caspase 8 (p18) activated fragments ([7]; cytoplasm): increase | levels of 14-3-3σ ([7]; cytoplasm): left steady | phosphorylation of p210 Bcr-Abl at Tyr245 ([7]; cytoplasm): did not significantly affect | c-Abl (145 and 60 kDa), caspase 9 (p35), caspase 8 (p18) and t-Bid (p15) at mitochondrial membranes ([7]; mitochondrial membranes): significantly raised | c-Abl (145 and 120 kDa) and p27kip1 in the nuclear compartment ([7]; nuclear compartment): significantly increased | apoptosis induction (impact on survival) [8]: statistically significant impact | apoptosis induction (impact on survival) [9]: statistically significant impact | LD50 [3]: 1.08 µM | LD50 [4]: 1.21 µM

Cc1ccc(NC(=O)c2ccc(CN3CCN(C)CC3)cc2)cc1Nc1nccc(-c2cccnc2)n1 [Imatinib, reference compound]
apoptosis induction (impact on survival) [8]: not on survival of Ba/F3 cells expressing T315I mutation
